From ChEMBL document CHEMBL4270589, “Novel coumarin-pyrazole carboxamide derivatives as potential topoisomerase II inhibitors: Design, synthesis and antibacterial activity” (Eur J Med Chem, 2018)
In brackets after ≈: the same amount, converted by molar mass.

What was measured:
Format in all cases: functional
[1] = test system: Staphylococcus aureus; test: Antibacterial activity against Staphylococcus aureus ATCC 12600 after 24 hrs by agar dilution method; details: ATCC 12600, 24 h
[2] = test system: Listeria monocytogenes; test: Antibacterial activity against Listeria monocytogenes ATCC 15313 after 24 hrs by agar dilution method; details: ATCC 15313, 24 h
[3] = test system: Escherichia coli; test: Antibacterial activity against Escherichia coli ATCC 25922 after 24 hrs by agar dilution method; details: ATCC 25922, 24 h
[4] = test system: Salmonella enterica; test: Antibacterial activity against Salmonella enterica ATCC 9184 after 24 hrs by agar dilution method; details: ATCC 9184, 24 h

Structure (SMILES)	MIC [1] [µg/mL]	MIC [2] [µg/mL]	MIC [3] [µg/mL]	MIC [4] [µg/mL]
CCN(CC)c1ccc2cc(C(=O)Nc3c(C#N)cnn3-c3ccc(Cl)cc3)c(=O)oc2c1	2 (≈ 4.33 µM)	8 (≈ 17.3 µM)	2 (≈ 4.33 µM)	16 (≈ 34.6 µM)
CCOC(=O)c1cnn(-c2ccccc2)c1NC(=O)c1cc2ccc(N(CC)CC)cc2oc1=O	64 (≈ 135 µM)	64 (≈ 135 µM)	64 (≈ 135 µM)	64 (≈ 135 µM)
N#Cc1cnn(-c2ccccc2)c1NC(=O)c1cc2cc(Br)ccc2oc1=O	> 128	> 128	> 128	> 128
CCOC(=O)c1cnn(-c2ccc(Cl)cc2)c1NC(=O)c1cc2ccccc2oc1=O	16 (≈ 36.5 µM)	64 (≈ 146 µM)	64 (≈ 146 µM)	16 (≈ 36.5 µM)
Cc1ccc2oc(=O)c(C(=O)Nc3c(C#N)cnn3-c3ccc(Cl)cc3)cc2c1	2 (≈ 4.94 µM)	16 (≈ 39.5 µM)	4 (≈ 9.88 µM)	2 (≈ 4.94 µM)
CCN(CC)c1ccc2cc(C(=O)Nc3c(C(=O)O)cnn3-c3ccc(F)cc3)c(=O)oc2c1	32 (≈ 68.9 µM)	16 (≈ 34.4 µM)	32 (≈ 68.9 µM)	16 (≈ 34.4 µM)
Cc1ccc(-n2ncc(C(=O)O)c2NC(=O)c2cc3ccccc3oc2=O)cc1	64 (≈ 164 µM)	> 128	64 (≈ 164 µM)	> 128
CCOC(=O)c1cnn(-c2ccc(F)cc2)c1NC(=O)c1cc2cc(Cl)ccc2oc1=O	> 128	> 128	64 (≈ 140 µM)	64 (≈ 140 µM)
Cc1ccc(-n2ncc(C#N)c2NC(=O)c2cc3ccccc3oc2=O)cc1	8 (≈ 21.6 µM)	> 128	32 (≈ 86.4 µM)	> 128
CCOC(=O)c1cnn(-c2ccc(F)cc2)c1NC(=O)c1cc2cc([N+](=O)[O-])ccc2oc1=O	32 (≈ 68.6 µM)	8 (≈ 17.2 µM)	64 (≈ 137 µM)	> 128
CCOC(=O)c1cnn(-c2ccc(C)cc2)c1NC(=O)c1cc2cc([N+](=O)[O-])ccc2oc1=O	> 128	> 128	> 128	> 128
CCN(CC)c1ccc2cc(C(=O)Nc3c(C#N)cnn3-c3ccc(C)cc3)c(=O)oc2c1	> 128	> 128	> 128	> 128

Next, values leading:

MIC [1] [µg/mL]	MIC [2] [µg/mL]	MIC [3] [µg/mL]	MIC [4] [µg/mL]	Structure (SMILES)
> 128	> 128	> 128	> 128	O=C(O)c1cnn(-c2ccccc2)c1NC(=O)c1cc2cc(Br)ccc2oc1=O
32 (≈ 79.3 µM)	> 128	64 (≈ 159 µM)	> 128	Cc1ccc(-n2ncc(C(=O)O)c2NC(=O)c2cc3cc(C)ccc3oc2=O)cc1
32 (≈ 66.3 µM)	32 (≈ 66.3 µM)	64 (≈ 133 µM)	64 (≈ 133 µM)	CCOC(=O)c1cnn(-c2ccc(Cl)cc2)c1NC(=O)c1cc2cc([N+](=O)[O-])ccc2oc1=O
16 (≈ 40.9 µM)	32 (≈ 81.9 µM)	32 (≈ 81.9 µM)	64 (≈ 164 µM)	N#Cc1cnn(-c2ccccc2)c1NC(=O)c1cc2cc(Cl)ccc2oc1=O
4 (≈ 9.41 µM)	8 (≈ 18.8 µM)	4 (≈ 9.41 µM)	64 (≈ 151 µM)	N#Cc1cnn(-c2ccc(Cl)cc2)c1NC(=O)c1cc2cc(Cl)ccc2oc1=O
2 (≈ 4.23 µM)	32 (≈ 67.8 µM)	4 (≈ 8.47 µM)	32 (≈ 67.8 µM)	CCOC(=O)c1cnn(-c2ccc(Cl)cc2)c1NC(=O)c1cc2cc(Cl)ccc2oc1=O
> 128	32 (≈ 67.8 µM)	4 (≈ 8.47 µM)	32 (≈ 67.8 µM)	O=C(O)c1cnn(-c2ccc(F)cc2)c1NC(=O)c1cc2cc(Br)ccc2oc1=O
> 128	> 128	> 128	> 128	Cc1ccc(-n2ncc(C#N)c2NC(=O)c2cc3cc(Cl)ccc3oc2=O)cc1
4 (≈ 10.2 µM)	32 (≈ 81.9 µM)	32 (≈ 81.9 µM)	16 (≈ 40.9 µM)	N#Cc1cnn(-c2ccc(Cl)cc2)c1NC(=O)c1cc2ccccc2oc1=O
> 128	> 128	> 128	> 128	O=C(O)c1cnn(-c2ccc(F)cc2)c1NC(=O)c1cc2cc([N+](=O)[O-])ccc2oc1=O
2 (≈ 4.41 µM)	64 (≈ 141 µM)	64 (≈ 141 µM)	> 128	N#Cc1cnn(-c2ccc(F)cc2)c1NC(=O)c1cc2cc(Br)ccc2oc1=O
